Results taken from patent US11427549B2, “Pyrimidinyloxy benzo-fused compounds as herbicides” (FMC Corporation, priority 2017, dated 2022).

Assays:
[1] = system: barnyardgrass (Echinochloa crus-galli); experiment: Test A preemergence, barnyardgrass; format: in vivo; conditions: Echinochloa crus-galli, pre-emergence, 240 h, 0 to 100 scale (0 no effect, 100 complete control), read-out: Plant response rating, Barnyardgrass; for pest or weed control at 31 g/ha: 31 g ai/ha; for pest or weed control at 125 g/ha: 125 g ai/ha
kochia (Kochia scoparia) [2] = experiment: Test A preemergence, kochia; format: in vivo; conditions: Bassia scoparia, pre-emergence, 240 h, 0 to 100 scale (0 no effect, 100 complete control), read-out: Plant response rating, Kochia; for pest or weed control at 31 g/ha: 31 g ai/ha; for pest or weed control at 125 g/ha: 125 g ai/ha
[3] = system: ragweed (common ragweed, Ambrosia elatior); experiment: Test A preemergence, ragweed; format: in vivo; conditions: Ambrosia artemisiifolia, pre-emergence, 240 h, 0 to 100 scale (0 no effect, 100 complete control), read-out: Plant response rating, Ragweed; for pest or weed control at 31 g/ha: 31 g ai/ha; for pest or weed control at 125 g/ha: 125 g ai/ha
[4] = system: ryegrass, Italian (Italian ryegrass, Lolium multiflorum); experiment: Test A preemergence, ryegrass, Italian; format: in vivo; conditions: Lolium multiflorum, pre-emergence, 240 h, 0 to 100 scale (0 no effect, 100 complete control), read-out: Plant response rating, Ryegrass, Italian; for pest or weed control at 31 g/ha: 31 g ai/ha; for pest or weed control at 125 g/ha: 125 g ai/ha
[5] = system: pigweed (Amaranthus retroflexus); experiment: Test A preemergence, pigweed; format: in vivo; conditions: Amaranthus retroflexus, pre-emergence, 240 h, 0 to 100 scale (0 no effect, 100 complete control), read-out: Plant response rating, Pigweed; for pest or weed control at 31 g/ha: 31 g ai/ha; for pest or weed control at 125 g/ha: 125 g ai/ha
[6] = system: barnyardgrass (Echinochloa crus-galli); experiment: Test A postemergence, barnyardgrass; format: in vivo; conditions: Echinochloa crus-galli, post-emergence, 240 h, 0 to 100 scale (0 no effect, 100 complete control), read-out: Plant response rating, Barnyardgrass; for pest or weed control at 31 g/ha: 31 g ai/ha; for pest or weed control at 125 g/ha: 125 g ai/ha
kochia (Kochia scoparia) [7] = experiment: Test A postemergence, kochia; format: in vivo; conditions: Bassia scoparia, post-emergence, 240 h, 0 to 100 scale (0 no effect, 100 complete control), read-out: Plant response rating, Kochia; for pest or weed control at 31 g/ha: 31 g ai/ha; for pest or weed control at 125 g/ha: 125 g ai/ha
[8] = system: ragweed (common ragweed, Ambrosia elatior); experiment: Test A postemergence, ragweed; format: in vivo; conditions: Ambrosia artemisiifolia, post-emergence, 240 h, 0 to 100 scale (0 no effect, 100 complete control), read-out: Plant response rating, Ragweed; for pest or weed control at 31 g/ha: 31 g ai/ha; for pest or weed control at 125 g/ha: 125 g ai/ha
[9] = system: ryegrass, Italian (Italian ryegrass, Lolium multiflorum); experiment: Test A postemergence, ryegrass, Italian; format: in vivo; conditions: Lolium multiflorum, post-emergence, 240 h, 0 to 100 scale (0 no effect, 100 complete control), read-out: Plant response rating, Ryegrass, Italian; for pest or weed control at 31 g/ha: 31 g ai/ha; for pest or weed control at 125 g/ha: 125 g ai/ha
[10] = system: pigweed (Amaranthus retroflexus); experiment: Test A postemergence, pigweed; format: in vivo; conditions: Amaranthus retroflexus, post-emergence, 240 h, 0 to 100 scale (0 no effect, 100 complete control), read-out: Plant response rating, Pigweed; for pest or weed control at 31 g/ha: 31 g ai/ha; for pest or weed control at 125 g/ha: 125 g ai/ha
[11] = system: wheat (Triticum aestivum); experiment: Test A postemergence, wheat; format: in vivo; conditions: Triticum aestivum, post-emergence, 240 h, 0 to 100 scale (0 no effect, 100 complete control), read-out: Plant response rating, Wheat; for plant injury at 31 g/ha: 31 g ai/ha; for plant injury at 125 g/ha: 125 g ai/ha
corn (Zea mays) = experiment: Test A postemergence, corn; format: in vivo; conditions: Zea mays, post-emergence, 240 h, 0 to 100 scale (0 no effect, 100 complete control); for Corn plant response rating (crop injury, 0 = no effect, 100 = complete kill) at 31 g/ha: 31 g ai/ha; for Corn plant response rating (crop injury, 0 = no effect, 100 = complete kill) at 125 g/ha: 125 g ai/ha
[12] = system: blackgrass (Alopecurus myosuroides); experiment: Test A postemergence, blackgrass; format: in vivo; conditions: Alopecurus myosuroides, post-emergence, 240 h, 0 to 100 scale (0 no effect, 100 complete control), read-out: Plant response rating, Blackgrass; for pest or weed control at 31 g/ha: 31 g ai/ha; for pest or weed control at 125 g/ha: 125 g ai/ha
[13] = system: galium (catchweed bedstraw, Galium aparine); experiment: Test A postemergence, galium; format: in vivo; conditions: Galium, post-emergence, 240 h, 0 to 100 scale (0 no effect, 100 complete control), read-out: Plant response rating, Galium; for pest or weed control at 31 g/ha: 31 g ai/ha; for pest or weed control at 125 g/ha: 125 g ai/ha
rice (Oryza sativa) = experiment: Test B flooded paddy test, rice; conditions: Oryza sativa, read-out: Plant response rating, Rice (0 to 100 scale, 0 is no effect, 100 is complete control)
[14] = system: ducksalad (Heteranthera limosa); experiment: Test B flooded paddy test, ducksalad; conditions: Heteranthera limosa, read-out: Plant response rating, Ducksalad (0 to 100 scale, 0 is no effect, 100 is complete control)
[15] = system: barnyardgrass (Echinochloa crus-galli); experiment: Test B flooded paddy test, barnyardgrass; conditions: Echinochloa crus-galli, read-out: Plant response rating, Barnyardgrass (0 to 100 scale, 0 is no effect, 100 is complete control)

`FC(F)(F)CC[C@@H]1OCc2cccc(Oc3ncc(Cl)cn3)c21` [Compound 21, 5-Chloro-2-[[(3S)-1,3-dihydro-3-(3,3,3-trifluoropropyl)-4-isobenzofuranyl]oxy]-pyrimidine] was tested, and the pest or weed control at 31 g/ha [1] was 0%, the pest or weed control at 125 g/ha [1] was 20% and the pest or weed control at 31 g/ha (kochia (Kochia scoparia) [2]) was 0%. For the same compound, the pest or weed control at 125 g/ha (kochia (Kochia scoparia) [2]) was 0%, the pest or weed control at 31 g/ha [3] was 0% and the pest or weed control at 125 g/ha [3] was 0%. The pest or weed control at 31 g/ha [4] was 0%, the pest or weed control at 125 g/ha [4] was 0% and the pest or weed control at 31 g/ha [5] was 0%. It also gave a pest or weed control at 125 g/ha [5] of 0%, a pest or weed control at 31 g/ha [6] of 0% and a pest or weed control at 125 g/ha [6] of 20%. It also gave a pest or weed control at 31 g/ha (kochia (Kochia scoparia) [7]) of 20%, a pest or weed control at 125 g/ha (kochia (Kochia scoparia) [7]) of 60% and a pest or weed control at 31 g/ha [8] of 0%. It also gave a pest or weed control at 125 g/ha [8] of 10%, a pest or weed control at 31 g/ha [9] of 0% and a pest or weed control at 125 g/ha [9] of 0%. The pest or weed control at 31 g/ha [10] was 20%, the pest or weed control at 125 g/ha [10] was 50% and the plant injury at 31 g/ha [11] was 0%. For the same compound, the plant injury at 125 g/ha [11] was 0%, the Corn plant response rating (crop injury, 0 = no effect, 100 = complete kill) at 31 g/ha (corn (Zea mays)) was 0% and the Corn plant response rating (crop injury, 0 = no effect, 100 = complete kill) at 125 g/ha (corn (Zea mays)) was 20%. For the same compound, the pest or weed control at 31 g/ha [12] was 10%, the pest or weed control at 125 g/ha [12] was 30% and the pest or weed control at 31 g/ha [13] was 10%. It also gave a pest or weed control at 125 g/ha [13] of 30%, a plant injury at 250 g/ha (rice (Oryza sativa)) of 0% and a pest or weed control at 250 g/ha [14] of 70%. The pest or weed control at 250 g/ha [15] was 0%.

Work on `O=C1c2cccc(Oc3ncc(Cl)cn3)c2C1CCCC(F)(F)F` (stereo not drawn) [Compound 22, 2-[(5-Chloro-2-pyrimidinyl)oxy]-8-(4,4,4-trifluorobutyl)bicyclo[4.2.0]octa-1,3,5-trien-7-one] yielded a pest or weed control at 31 g/ha [1] of 0%, a pest or weed control at 125 g/ha [1] of 60% and a pest or weed control at 31 g/ha (kochia (Kochia scoparia) [2]) of 20%. It also gave a pest or weed control at 125 g/ha (kochia (Kochia scoparia) [2]) of 80%, a pest or weed control at 31 g/ha [3] of 0% and a pest or weed control at 125 g/ha [3] of 0%. The pest or weed control at 31 g/ha [4] was 0%, the pest or weed control at 125 g/ha [4] was 20% and the pest or weed control at 31 g/ha [5] was 0%. For the same compound, the pest or weed control at 125 g/ha [5] was 30%, the pest or weed control at 31 g/ha [6] was 20% and the pest or weed control at 125 g/ha [6] was 40%. The pest or weed control at 31 g/ha (kochia (Kochia scoparia) [7]) was 40%, the pest or weed control at 125 g/ha (kochia (Kochia scoparia) [7]) was 80% and the pest or weed control at 31 g/ha [8] was 0%. It also gave a pest or weed control at 125 g/ha [8] of 20%, a pest or weed control at 31 g/ha [9] of 30% and a pest or weed control at 125 g/ha [9] of 20%. It also gave a pest or weed control at 31 g/ha [10] of 30%, a pest or weed control at 125 g/ha [10] of 80% and a plant injury at 31 g/ha [11] of 0%. The plant injury at 125 g/ha [11] was 0%, the Corn plant response rating (crop injury, 0 = no effect, 100 = complete kill) at 31 g/ha (corn (Zea mays)) was 20% and the Corn plant response rating (crop injury, 0 = no effect, 100 = complete kill) at 125 g/ha (corn (Zea mays)) was 30%. It also gave a pest or weed control at 31 g/ha [12] of 0%, a pest or weed control at 125 g/ha [12] of 50% and a pest or weed control at 31 g/ha [13] of 50%. The pest or weed control at 125 g/ha [13] was 80%, the plant injury at 250 g/ha (rice (Oryza sativa)) was 0% and the pest or weed control at 250 g/ha [14] was 80%. The pest or weed control at 250 g/ha [15] was 35%.

`O=C1OC(CCC(F)(F)F)Cc2c(Oc3ncc(Cl)cn3)cccc21` (stereo not drawn) [Compound 23, 5-[(5-Chloro-2-pyrimidinyl)oxy]-3,4-dihydro-3-(3,3,3-trifluoropropyl)-1H-2-benzopyran-1-one] was tested, and the pest or weed control at 31 g/ha [1] was 0%, the pest or weed control at 125 g/ha [1] was 30% and the pest or weed control at 31 g/ha (kochia (Kochia scoparia) [2]) was 0%. The pest or weed control at 125 g/ha (kochia (Kochia scoparia) [2]) was 60%, the pest or weed control at 31 g/ha [3] was 0% and the pest or weed control at 125 g/ha [3] was 0%. It also gave a pest or weed control at 31 g/ha [4] of 0%, a pest or weed control at 125 g/ha [4] of 0% and a pest or weed control at 31 g/ha [5] of 20%. For the same compound, the pest or weed control at 125 g/ha [5] was 100%, the pest or weed control at 31 g/ha [6] was 20% and the pest or weed control at 125 g/ha [6] was 20%. The pest or weed control at 31 g/ha (kochia (Kochia scoparia) [7]) was 20%, the pest or weed control at 125 g/ha (kochia (Kochia scoparia) [7]) was 70% and the pest or weed control at 31 g/ha [8] was 0%. The pest or weed control at 125 g/ha [8] was 10%, the pest or weed control at 31 g/ha [9] was 0% and the pest or weed control at 125 g/ha [9] was 0%. For the same compound, the pest or weed control at 31 g/ha [10] was 60%, the pest or weed control at 125 g/ha [10] was 70% and the plant injury at 31 g/ha [11] was 20%. For the same compound, the plant injury at 125 g/ha [11] was 30%, the Corn plant response rating (crop injury, 0 = no effect, 100 = complete kill) at 31 g/ha (corn (Zea mays)) was 10% and the Corn plant response rating (crop injury, 0 = no effect, 100 = complete kill) at 125 g/ha (corn (Zea mays)) was 20%. For the same compound, the pest or weed control at 31 g/ha [12] was 20%, the pest or weed control at 125 g/ha [12] was 30% and the pest or weed control at 31 g/ha [13] was 40%. For the same compound, the pest or weed control at 125 g/ha [13] was 70%, the plant injury at 250 g/ha (rice (Oryza sativa)) was 0% and the pest or weed control at 250 g/ha [14] was 0%. It also gave a pest or weed control at 250 g/ha [15] of 0%.
